Consider four compounds from PMC6426286 (2019).

Experiment [1] relates to G. violaceus P1 stem-loop used for crystallization (RNA, riboswitch, 5-bromocytidine at 17) GGUGGGGACGACCCCACC
Briefly: X-ray crystallography, 1.54 Å. To be noted: 100 mM KCl, 2 mM MgCl2 (RNA folding); ligand soaked into ligand-free crystals; 5 mM HEPES pH 7.6 (RNA folding).

The subject of experiment [2] is GVP2 (guanidine-II riboswitch P2 stem-loop) (RNA, riboswitch) GCGGGGACGACCCCGC
Briefly: ITC. The settings on record: 100 mM KCl, 10 mM MgCl2; 40 mM HEPES pH 7.2, 298 K; one-set-of-sites fit.

Experiment [3] deals with GVP1P2 (complete guanidine-II riboswitch) (RNA, riboswitch) GGUGAGGACGACCUCACCCUUCGCAAAGUUUCGCGGGGACGACCCCGC
Briefly: ITC. The settings on record: 100 mM KCl, 10 mM MgCl2; 40 mM HEPES pH 7.2, 298 K; one-set-of-sites fit.

Experiment [4] has as its system GVP1 (guanidine-II riboswitch P1 stem-loop) (RNA, riboswitch) GGUGGGGACGACCCCACC
Nature of the experiment: ITC. To be noted: 100 mM KCl, 10 mM MgCl2; 40 mM HEPES pH 7.2, 298 K; one-set-of-sites fit.

For experiment [5], the system named is G. violaceus P1 stem-loop used for crystallization (RNA, riboswitch, 5-bromocytidine at 17) GGUGGGGACGACCCCACC
Briefly: X-ray crystallography, 1.41 Å. The settings on record: 100 mM KCl, 2 mM MgCl2 (RNA folding); ligand soaked into ligand-free crystals; 5 mM HEPES pH 7.6 (RNA folding).

The test system is the same in experiment [6]. Nature of the experiment: X-ray crystallography, 1.66 Å. The settings on record: 100 mM KCl, 2 mM MgCl2 (RNA folding); ligand soaked into ligand-free crystals; 5 mM HEPES pH 7.6 (RNA folding).

In the case of `CCNC(=N)N`, in experiment [1], the binding entry is given as “yes”.

What is called Kd is the free concentration of one partner at which half of the binding sites on the other are occupied at equilibrium, for simple one-to-one binding. With `N=C(N)N`, the figures for the Kd in experiment [2], in experiment [3] and in experiment [4] were 66 ± 8 µM, 33 ± 4 µM and 68 ± 6 µM, respectively.

Compound `N=C(N)NCCCCCNC(=N)N` yielded a Kd in experiment [3] of 5.1 ± 0.8 µM. In addition, the binding result in experiment [5] is listed as “yes”.

For `N=C(N)NCCCCNC(=N)N`, the Kd in experiment [2] amounted to 5.9 ± 4 µM; in experiment [3] it was 2.2 ± 0.5 µM; in experiment [4], 4.7 ± 0.2 µM. Besides, in experiment [6], the binding result is “yes”.
